From patent US7276511B2, “Benzylamine derivative” (Zeria Pharmaceutical Co., Ltd., priority 2003, dated 2007)
Counter-ions that a name gives are not always drawn.

Biological target: T1, Cloned Neurokinin Receptor Subtype 2 Human (Homo sapiens, UniProt P21452)
T1 construct: purchased Biosignal Packard; host or cells: CHO cells
T1 sequence (P21452 1-398): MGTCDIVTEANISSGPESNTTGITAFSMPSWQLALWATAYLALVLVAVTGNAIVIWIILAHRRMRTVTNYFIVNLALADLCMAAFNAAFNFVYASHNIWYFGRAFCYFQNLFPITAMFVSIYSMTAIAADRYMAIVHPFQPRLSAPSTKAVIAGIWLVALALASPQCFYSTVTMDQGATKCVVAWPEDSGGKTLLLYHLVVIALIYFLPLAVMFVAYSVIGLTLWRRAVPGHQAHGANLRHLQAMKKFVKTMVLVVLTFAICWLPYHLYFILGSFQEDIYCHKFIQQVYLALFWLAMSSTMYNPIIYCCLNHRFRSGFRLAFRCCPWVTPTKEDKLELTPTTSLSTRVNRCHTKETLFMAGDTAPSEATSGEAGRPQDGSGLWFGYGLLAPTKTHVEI
Assay: NK-2 receptor-binding experiment ([3H]-SR48968, CHO cell membranes)
Settings: Table 3; inhibition of [3H]-SR48968 (0.85 nM) binding, pseudo-Hill analysis
Method: 2. NK-2 Receptor-binding Experiment
Cloned Neurokinin Receptor Subtype 2 Human (CHO cells, Biosignal Packard), [^3H]-SR48968 (Amersham, final concentration 0.85 nM), and a test compound were mixed with 20 mM HEPES buffer, and the mixture was incubated for 50 minutes at 27° C. After completion of incubation, membrane components were collected by means of an automatic filtration apparatus (Brandel) onto a GF/C glass fiber filter (Whatman).
Before use, in order to prevent non-specific binding, the glass fiber filter had been pre-treated with 0.1% polyethylene imine solution for about 4 hours.
The filter employed to collect the membrane components was transferred to a plastic vial containing UltimaGold MV (5 mL), and measured by means of a liquid scintillation counter (Packard, 2000CA) in terms of the radioactivity.
Percent radioactive ligand-receptor binding inhibition of each test compound was calculated by use of the following equation, and IC50 (nM) was determined through pseudo-Hill analysis.
Percent inhibition (%)=[1−(C−A)/(B−A)]×100
A: Radioactivity attributed to non-specific binding
B: Radioactivity without test compound
C: Radioactivity with test compound

Row | SMILES | IC50 [pM]
1 | CN(CC(CCN1CCC2(CC1)c1ccccc1C[S+]2[O-])(c1ccc(Cl)c(Cl)c1)N(C)C(=O)Cc1ccccc1)C(=O)CC(F)(F)F [Compound No. 14, N-[2-(3,4-Dichloro-phenyl)-2-(methyl-phenylacetyl-amino)-4-{spiro[benzo(c)thiophene-1(3H),4′-piperidine]-(2S)-oxido}-1′-yl-butyl]-3,3,3-trifluoro-N-methyl-propionamide hydrochloride] | 340
2 | CN(CC(CCN1CCC2(CC1)c1ccccc1C[S+]2[O-])(c1ccc(Cl)c(Cl)c1)N(C)C(=O)C(=O)Nc1ccccc1Cl)C(=O)CC(F)(F)F [Compound No. 9, N-(2-Chloro-phenyl)-N′-{1-(3,4-dichloro-phenyl)-1-{[methyl-(3,3,3-trifluoro-propionyl)-amino]-methyl}-3-{spiro[benzo(c)thiophene-1(3H),4′-piperidine]-(2S)-oxido}-1′-yl-propyl}-N′-methyl-oxalamide hydrochloride] | 7200
3 | CCOC(=O)C(=O)N(C)C(CCN1CCC2(CC1)c1ccccc1C[C@@H]2O)(COCc1cc(OC)c(OC)c(OC)c1)c1ccc(Cl)c(Cl)c1 (mixture of isomers) [Compound No. 21, N-[1-(3,4-Dichloro-phenyl)-3-{spiro[((2S)-hydroxy)indan-1,4′-piperidine]}-1′-yl-1-(3,4,5-trimethoxy-benzyloxymethyl)-propyl]-N-methyl-oxamic acid ethyl ester hydrochloride] | 8700
4 | CN(C[C@](CCN1CCC2(CC1)c1ccccc1C[S@+]2[O-])(c1ccc(Cl)c(Cl)c1)N(C)C(=O)c1ccccc1)C(=O)C(F)(F)F [Compound No. 26, N-{1-(2,2,2-trifluoro-N-methylacetamide)-2-(S)-(3,4-dichlorophenyl)-4-[spiro(benzo(c)thiophene-(2S)-oxido-1(3H),4′-piperidin)-1′-yl]butan-2-yl}-N-methylbenzamide hydrochloride] | 850
5 | CN(C[C@](CCN1CCC2(CC1)c1ccccc1C[S@+]2[O-])(c1ccc(Cl)c(Cl)c1)N(C)C(=O)c1ccc(C(F)(F)F)cc1)C(=O)CC(F)(F)F [Compound No. 31, N-{1-(3,3,3-trifluoro-N-methylpropanamido)-2-(S)-(3,4-dichlorophenyl)-4-[spiro(benzo(c)thiophene-(2S)-oxido-1(3H),4′-piperidin)-1′-yl]butan-2-yl}-N-methyl-4-trifluoromethylbenzamide hydrochloride] | 750

More lines, in order of falling IC50, values ahead:

Row | IC50 [pM] | SMILES
6 | 4100 | CN(CC(CCN1CCC2(CC1)c1ccccc1C[S@+]2[O-])(c1ccc(Cl)c(Cl)c1)N(C)C(=O)C(=O)N(C)c1ccccc1)C(=O)CC(F)(F)F (single isomer, unassigned) [Compound No. 10]
7 | 2600 | CN(CC(CCN1CCC2(CC1)c1ccccc1C[S+]2[O-])(c1ccc(Cl)c(Cl)c1)N(C)C(=O)c1ccccc1)C(=O)CC(F)(F)F [Compound No. 13, N-{1-(3,4-Dichloro-phenyl)-1-{[methyl-(3,3,3-trifluoro-propionyl)-amino]-methyl}-3-{spiro[benzo(c)thiophene-1(3H),4′-piperidine]-(2S)-oxido}-1′-yl-propyl}-N-methyl-benzamide hydrochloride]
8 | 650 | CC(C)C(=O)N(C)C[C@](CCN1CCC2(CC1)c1ccccc1C[S@+]2[O-])(c1ccc(Cl)c(Cl)c1)N(C)C(=O)C(=O)N(C)c1ccccc1 [Compound No. 33, N^1-{1-(N-methylisobutylamide)-2-(S)-(3,4-dichlorophenyl)-4-[spiro(benzo(c)thiophene-(2S)-oxido-1(3H), 41-piperidin)-1′-yl]butan-2-yl}-N^1,N^2-dimethyl-N^2-phenyloxalamide hydrochloride]
9 | 580 | CCN(C(=O)C(=O)N(C)[C@](CCN1CCC2(CC1)c1ccccc1C[S@+]2[O-])(CN(C)C(=O)CC(F)(F)F)c1ccc(Cl)c(Cl)c1)c1ccccc1 [Compound No. 25, N^1-{1-(3,3,3-trifluoro-N-methylpropanamido)-2-(S)-(3,4-dichlorophenyl)-4-[spiro(benzo(c)thiophene-(2S)-oxido-1(3H),4′-piperidin)-1′-yl]butan-2-yl}-N^1-methyl-N^2-ethyl-N^2-phenyloxalamide hydrochloride]
